# Measurements from PubChem BioAssay AID624285 (Broad Institute, 2012).
# Where “and” joins values, the source holds several entries; their conditions need not be identical. Identical values can stand only once. Calls of active or inactive are those of the source.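 The calls were made as follows: active = signal-decreasing dose-response curve whose fitted half-maximal concentration is at or below twice the highest valid tested dose; inconclusive = flat fit at 30 to 70% signal loss, or poor fit; inactive = the rest.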
# Assay: cell viability loss after compound exposure – 24 h, luminescence, cherry-picked samples, cytotoxicity control for PDI inhibitor project, dose response (AID 624285)
# Details: NIH3T3/HeLa viability, CellTiter-Glo ATP luminescence, 24 h; at 30 µM (top of the series)
row,Structure (SMILES),"activity change, negative = cytotoxicity"
1,COc1ccc(CN(C)C[C@@H]2Oc3ccc(NC(=O)Nc4ccccc4)cc3CC(=O)N([C@H](C)CO)C[C@@H]2C)cc1,-5.13% (inactive)

# Same assay, conditions: NIH3T3/HeLa viability, CellTiter-Glo ATP luminescence, 24 h; at 35 µM (top of the series)
row,Structure (SMILES),"activity change, negative = cytotoxicity"
1,CCN(CC)C(=O)CSc1nnc([C@H](Cc2c[nH]c3ccccc23)NC(=O)OC(C)(C)C)o1,-8.74% (inactive)
2,CC1(C(=O)NS(=O)(=O)c2ccccc2Cl)CCN1C(=O)c1ccccc1CCc1ccccc1 (centres undefined),-8.92% (inactive)
3,NC(=O)CSc1nnc([C@@H](N)Cc2c[nH]c3ccccc23)o1,-10.6% (inactive)
4,Cc1ccc(S(=O)(=O)N2CCC(C(=O)Nc3ccc(S(=O)(=O)N4CCCC4)cc3)CC2)cc1,-22.6% (inactive)
5,Cc1[nH]c2ccc(C(=O)NC3CCCC3)cc2c1C,-3.79% (inactive)
6,C[C@H](CO)N1C[C@H](C)[C@@H](CN(C)S(=O)(=O)c2ccc(F)cc2)Oc2ccc(NC(=O)Cc3cn(C)c4ccccc34)cc2C1=O,-0.991% (inactive)
7,O=C(NCCCN1CCOCC1)C(Sc1ccccc1)c1ccccc1 (centres undefined),-12% (inactive)
8,CC(C)CCOc1ccc(C2(C)NC(=O)N(CN3CCOCC3)C2=O)cc1 (centres undefined),-15.3% (inactive)
9,O=C1NC[C@H](Cc2ccc(O)cc2)N(CC2CCCCC2)C1=O,-25.4% (inactive)
10,O=C(CN1C(=O)NC2(CCCC2)C1=O)Nc1ccc(C(F)(F)F)cc1,-9.2% (inactive)
11,CCOc1ccc(/C=N/OC(C)C(=O)NCc2ccc3c(c2)OCO3)cc1 (centres undefined),-5.51% (inactive)
12,N#Cc1ccccc1CSc1nnc(Cc2ccccc2)o1,-7.32% (inactive)
13,O=C1CCC(=O)N1c1nc2nc(-c3ccccc3)cc(-c3ccccc3)n2n1,-9.12% (inactive)
14,COc1ccc(/C(C)=N/NC(=O)CNC(=O)c2cccs2)cc1,-6.13% (inactive)
15,CCOc1ccc2nc(SCC(=O)c3ccc(Cl)s3)sc2c1,-9.42% (inactive)
16,O=C(/C=C/c1ccccc1)Nc1scc(-c2ccccc2)c1C(=O)O,-11.6% (inactive)
17,CC(=O)c1ccc(N2CCN(C(=O)c3ccc4[nH]c(C)c(C)c4c3)CC2)cc1,-9.89% (inactive)
18,O=C(c1cc([N+](=O)[O-])ccc1N1CCOCC1)N1CCN(c2ccc([N+](=O)[O-])cc2)CC1,-16.5% (inactive)
19,Cc1noc(C)c1S(=O)(=O)Nc1ccc2c(c1)CC(=O)N([C@H](C)CO)C[C@@H](C)[C@@H](CN(C)S(=O)(=O)c1ccc(F)cc1)O2,-0.682% (inactive)
20,Cc1ccc2nc(N3CCN(Cc4nnnn4C4CCCC4)CC3)c(C#N)cc2c1,-9.95% (inactive)
21,COC(=O)c1ccc(COC(=O)CSCC(=O)Nc2ccc(C)cc2C)cc1,-2.15% (inactive)
22,CN(CCC(=O)Nc1ccc(Br)cc1)Cc1ccccc1,-5.93% (inactive)
23,COc1ccccc1NC(=O)c1ccc(NC(=O)COC(=O)c2cccnc2Cl)cc1,-3.13% (inactive)
24,COc1cc(-c2oc3cc(O)cc(O)c3c(=O)c2O[C@@H]2O[C@H](COC3O[C@@H](C)[C@H](O)[C@@H](O)[C@H]3O)[C@@H](O)[C@H](O)[C@H]2O)ccc1O (some centres undefined),-2.55% (inactive)
25,C=CCn1c(C(CCCC)CC(O)COCC(C)C)n[nH]c1=S (centres undefined),-17.2% (inactive)

row,Structure (SMILES),"activity change, negative = cytotoxicity"
1,O=C1[C@@H]2C(Cc3ccc(O)cc3)NC3(C(=O)Nc4ccc(F)cc43)[C@@H]2C(=O)N1c1ccccc1 (some centres undefined),-14% (inactive)
2,Cc1ccc(N2CC(C(=O)Nc3nc4ccc(S(C)(=O)=O)cc4s3)CC2=O)cc1 (centres undefined),-4.02% (inactive)
3,CC(=O)N(C)C1(c2nnnn2CCOC(=O)Nc2ccc(Cl)cc2)CCCCC1,-9.52% (inactive)
4,C[C@@H](C(=O)NCc1ccccc1)N1C(=O)C2CC=CCC2C1=O (some centres undefined),-8.35% (inactive)
5,Cc1ccc(NC(=O)NC(=O)CN2CCC(C(N)=O)CC2)c(C)c1,-4.84% (inactive)
6,Cc1cccc(C(=O)OCC(=O)N2CCCCCC2)c1O,-10.1% (inactive)
7,COc1ccc(CN(C)C[C@@H]2Oc3c(NS(C)(=O)=O)cccc3C(=O)N([C@H](C)CO)C[C@H]2C)cc1,2.2% (inactive)
8,CN(C)C(=O)CSc1n[nH]c(-c2ccco2)n1,-5.07% (inactive)
9,C[C@@H]1O[C@@H](Oc2c(-c3cc(O)c(O)c(O)c3)oc3cc(O)cc(O)c3c2=O)[C@H](O)[C@H](O)[C@H]1O,-5.81% (inactive)
10,O=C(CN(CCc1ccccc1)C(=O)CNS(=O)(=O)c1ccccc1)NCC1CCCO1 (centres undefined),-1.76% (inactive)
11,O=C(c1ccc(NS(=O)(=O)c2ccccc2)cc1)N1CCOCC1,-8.07% (inactive)
12,O=C(NCc1cccs1)C1CC(c2ccc(F)cc2)=NO1 (centres undefined),-16.4% (inactive)
13,COc1ccc(C2C(C(C)=O)=C(O)C(=O)N2CCc2c[nH]c3ccccc23)cc1OC (centres undefined),-3.29% (inactive)
14,CCCCC1CCC(c2nc(-c3ccccn3)no2)CC1 (centres undefined),-12.5% (inactive)
15,COC(=O)CC1OCC=C2CN3CCC45C6=CC(=O)C(=O)C([N+](=O)[O-])=C6NC4C1C2CC35 (centres undefined),-13% (inactive)
16,O=C(NCc1ccccn1)Nc1cccc(Cl)c1,-8.23% (inactive)
17,C[C@@H]1O[C@@H](Oc2c(-c3ccc(O)c(O)c3)oc3cc(O)cc(O)c3c2=O)[C@H](O)[C@H](O)[C@H]1O,-1.28% (inactive) and -10.2% (inactive)
18,N#Cc1c(NCCCO)nc(-c2ccco2)c2c1CCCC2,-19.8% (inactive)
19,CCc1nc2ccc(C(=O)N(CC)CC(=O)Nc3c(F)cccc3F)cc2nc1CC,-5.83% (inactive)
20,O=C1C[C@H](c2ccc(O)cc2)Oc2cc(O[C@@H]3O[C@H](CO)[C@@H](O)[C@H](O)[C@H]3O)cc(O[C@@H]3O[C@H](CO)[C@@H](O)[C@H](O)[C@H]3O)c21,-8.86% (inactive)
21,CCOC(=O)c1oc2cccc(O)c2c1CN(Cc1ccccc1)C(C)=O,-17.2% (inactive)
22,CCOC(=O)C(C)c1n[nH]c(=O)c2ccccc12 (centres undefined),-6.39% (inactive)
23,O=c1[nH]c(C2CCN(S(=O)(=O)c3ccc(C(F)(F)F)cc3)CC2)nc2c1nnn2Cc1ccc(F)cc1,-22.8% (inactive)
24,C[C@H]1CCCC(=O)CCCCCc2cc(O)cc(O)c2C(=O)O1,-12.8% (inactive)
25,COc1cccc(NC(=O)CN(C)C(=O)/C=C/c2cc(OC)ccc2OC)c1,-4.31% (inactive)

row,Structure (SMILES),"activity change, negative = cytotoxicity"
1,O=S(=O)(c1ccccc1)N1N=C(c2ccc(O)cc2)CC1c1ccco1 (centres undefined),-18% (inactive)
2,CCCNC(=O)Cn1c(-c2ccc(F)cc2)cc(C(=O)OCC)c1C,-18.9% (inactive)
3,Cc1cc(=O)c(C(=O)Nc2cccc(C(=O)NC3CC3)c2)nn1-c1ccccc1,-3.19% (inactive)
4,COc1cccc(/C=N/NC(=O)CNC(=O)c2ccc3c(c2)OCCO3)c1O,-12.5% (inactive)
5,Cc1ccc2c(=O)n3c(nc2c1)C(Cc1ccc(O)cc1)NC(=O)c1cccnc1-3 (centres undefined),-12.6% (inactive)
6,O=C1C[C@@H](c2ccc(O[C@@H]3O[C@H](CO)[C@@H](O)[C@H](O)[C@H]3O)cc2)Oc2cc(O)ccc21,-5.71% (inactive)
7,C[C@@H]1O[C@@H](OC[C@H]2O[C@@H](Oc3c(-c4ccc(O)c(O)c4)oc4cc(O)cc(O)c4c3=O)[C@H](O)[C@@H](O)[C@@H]2O)[C@H](O)[C@H](O)[C@H]1O,-2.56% (inactive)
8,CCOc1ccc(C(=O)NCC(=O)OCC(=O)N(C)CC(=O)Nc2ccccc2CC)cc1OCC,-4.27% (inactive)
9,C[C@H](CO)N1C[C@H](C)[C@@H](CN(C)S(=O)(=O)c2ccccc2)Oc2ccc(NC(=O)Cc3cn(C)c4ccccc34)cc2C1=O,-1.88% (inactive)
10,CC(=O)c1ccc(NC(=O)c2cc(Cl)nc3ccccc23)cc1,-8.36% (inactive)
11,C[C@@H]1O[C@@H](OC[C@@H]2O[C@H](Oc3c(-c4ccc(O)cc4)oc4cc(O)cc(O)c4c3=O)[C@@H](O)[C@H](O)[C@H]2O)[C@H](O)[C@H](O)[C@H]1O,0.405% (inactive)
12,O=C(N/N=C/c1cccc([N+](=O)[O-])c1)c1cnccn1,-7.37% (inactive)
13,CC(=O)NC(Cc1c[nH]c2ccccc12)C(=O)OCC(=O)N1CCN(S(=O)(=O)c2ccc(Cl)cc2)CC1 (centres undefined),-10.5% (inactive)
14,CCN1C(=O)C2C(c3ccccc3F)NC(Cc3ccc(O)cc3)(C(=O)OC)C2C1=O (centres undefined),-13.9% (inactive)
15,C[C@@H]1CN([C@H](C)CO)C(=O)Cc2cc(NC(=O)Nc3ccccc3)ccc2O[C@@H]1CN(C)Cc1ccccc1,-3.74% (inactive)
16,Cc1c(C(=O)N2CCOCC2)sc2ncn(CC(=O)N3CCC(C)CC3)c(=O)c12,-2.62% (inactive)
17,COc1ccccc1NS(=O)(=O)c1ccc(C)c(C(=O)NCC2(N(C)C)CCCCC2)c1,-11.3% (inactive)
18,Cc1cc(C)cc(CC(=O)N2CCC2(C)C(=O)NS(=O)(=O)c2ccc(Br)cc2)c1 (centres undefined),-4.97% (inactive)
19,CCCNC(=O)c1cccc(COc2ccccc2OC)c1,-6.42% (inactive)
20,CC(C)(C)OC(=O)N[C@@H](Cc1c[nH]c2ccccc12)c1nnc(SCC(N)=O)o1,-7.43% (inactive)
21,O=C1NC[C@H](Cc2ccccc2)N(C[C@H]2CCCN2C[C@H](Cc2ccc(O)cc2)N2C[C@H](Cc3ccc(O)cc3)N(CC3CCCCCC3)C(=O)C2=O)C1=O,-18.9% (inactive)
22,O=C(Nc1ccccc1)c1cc(C2CCCCN2C(=O)c2ccccc2)on1 (centres undefined),-15.5% (inactive)
23,CCOC(=O)c1c(-c2ccccc2)oc2cc(Br)c(O)cc12,-20.5% (inactive)
